Results reported in patent publication US20150272939A1, “Identification of Small Molecule Inhibitors of Jumonji AT-Rich Interactive Domain 1A (JARID1A) and 1B (JARID1B) Histone Demethylase” (Yale University, priority 2012, published 2015).

Tests used:
[1] = target: T1, JARID1B (Homo sapiens, UniProt Q9UGL1); assay: FLAG-JARID1B histone demethylase assay with AlphaScreen detection (HTS and dose response); format: biochemical; conditions: for Assay − Artifact Signal (percent): assay signal minus artifact signal; for inhibition at 20 µM: high-throughput screen, compound 20 μM, standard demethylase conditions (10 μM α-KG, 50 μM Fe (II)), read-out: Inhibitory effect (percent); for Assay Signal (percent) / Validation result of HTS active: effect of the compound in the JARID1B AlphaScreen demethylase assay: validation of HTS actives; for Assay Signal (percent): effect of compound in JARID1B AlphaScreen assay; for Validation result of HTS active: effect of the compound in the JARID1B AlphaScreen demethylase assay: total signal before subtraction of artifact signal;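 as to Assay Signal (percent): compound tested at 20 µM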;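 as to Assay − Artifact Signal (percent): compound tested at 20 µM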;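 as to all read-outs here: FLAG-tagged JARID1B at 4 nM acting on a biotinylated H3K4me3 peptide, demethylation read by AlphaScreen luminescence, with hits checked against bio-H3K4me2 without enzyme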
T1 construct: The FLAG tagged full length JARID1B enzyme was expressed in Sf21 insect cells using FLAG-JARID1B baculoviruses; FLAG (N); made in house; host or cells: Sf21 insect cells (baculovirus)

[2] = AlphaScreen counterscreen against bio-H3K4me2 peptide in the absence of enzyme (artifact signal); conditions: for Artifact Signal (percent): effect of the compound when incubated with bio-H3K4me2 peptide (counterscreen, no enzyme); for Artifact signal: effect of the compound when it is incubated with bio-H3K4me2 peptide: counterscreen, no enzyme;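 as to all read-outs here: counterscreen run without enzyme against bio-H3K4me2 peptide to remove false positive hits from the JARID1 demethylase AlphaScreen screen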

T1 sequence (Q9UGL1 whole entry): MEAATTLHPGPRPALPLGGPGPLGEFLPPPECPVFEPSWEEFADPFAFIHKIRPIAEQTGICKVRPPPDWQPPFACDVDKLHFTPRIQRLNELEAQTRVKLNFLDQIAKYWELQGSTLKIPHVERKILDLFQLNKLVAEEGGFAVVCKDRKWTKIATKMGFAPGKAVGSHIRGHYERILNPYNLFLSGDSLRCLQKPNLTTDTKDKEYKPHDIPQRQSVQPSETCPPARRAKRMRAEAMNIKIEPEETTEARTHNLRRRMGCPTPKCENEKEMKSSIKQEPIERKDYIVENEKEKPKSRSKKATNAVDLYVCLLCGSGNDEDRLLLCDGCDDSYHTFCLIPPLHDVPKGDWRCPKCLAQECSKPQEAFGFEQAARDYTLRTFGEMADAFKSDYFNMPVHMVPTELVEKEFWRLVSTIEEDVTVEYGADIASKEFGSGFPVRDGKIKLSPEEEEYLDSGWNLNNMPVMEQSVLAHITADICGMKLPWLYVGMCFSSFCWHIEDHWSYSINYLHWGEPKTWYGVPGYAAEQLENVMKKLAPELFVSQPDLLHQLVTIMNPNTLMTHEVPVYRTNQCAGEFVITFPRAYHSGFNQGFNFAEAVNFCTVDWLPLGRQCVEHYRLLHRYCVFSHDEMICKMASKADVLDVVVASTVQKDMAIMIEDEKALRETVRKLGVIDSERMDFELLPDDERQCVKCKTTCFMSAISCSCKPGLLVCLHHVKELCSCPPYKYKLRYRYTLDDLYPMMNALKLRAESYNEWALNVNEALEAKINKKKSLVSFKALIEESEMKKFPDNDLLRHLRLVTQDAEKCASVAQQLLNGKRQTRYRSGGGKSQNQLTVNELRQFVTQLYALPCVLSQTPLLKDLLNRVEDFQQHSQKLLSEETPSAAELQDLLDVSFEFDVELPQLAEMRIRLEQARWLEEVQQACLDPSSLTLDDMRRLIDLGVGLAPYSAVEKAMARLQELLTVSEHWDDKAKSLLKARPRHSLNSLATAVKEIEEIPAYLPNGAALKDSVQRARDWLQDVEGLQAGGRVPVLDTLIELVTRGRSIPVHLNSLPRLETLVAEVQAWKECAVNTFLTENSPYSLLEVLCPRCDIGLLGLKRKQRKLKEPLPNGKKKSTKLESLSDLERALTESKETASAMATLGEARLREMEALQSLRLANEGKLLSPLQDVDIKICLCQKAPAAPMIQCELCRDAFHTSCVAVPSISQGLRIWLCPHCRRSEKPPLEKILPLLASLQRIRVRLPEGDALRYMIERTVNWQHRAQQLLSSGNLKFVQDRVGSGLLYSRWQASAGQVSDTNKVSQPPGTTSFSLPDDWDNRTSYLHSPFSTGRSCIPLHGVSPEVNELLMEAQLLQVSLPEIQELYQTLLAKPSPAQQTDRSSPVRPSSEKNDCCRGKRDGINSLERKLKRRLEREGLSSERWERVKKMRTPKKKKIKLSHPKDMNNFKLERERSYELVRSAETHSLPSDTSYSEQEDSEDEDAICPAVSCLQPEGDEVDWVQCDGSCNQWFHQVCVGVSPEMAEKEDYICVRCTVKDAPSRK

SMILES	Assay − Artifact Signal (percent) [1] [%]	inhibition at 20 µM [1] [%]	Assay Signal (percent) [1] [%]	Artifact Signal (percent) [2] [%]	Validation result of HTS active: effect of the compound in the JARID1B AlphaScreen demethylase assay [1]	Artifact signal: effect of the compound when it is incubated with bio-H3K4me2 peptide [2]
COc1ccccc1OCc1nnc(S)n1C [YU146471]	47.93	36.4	46.29	−1.64		
N#CC(=Cc1ccc(-c2ccccc2)o1)C(N)=S [YU146534]	10.89	32.8	15.42	4.53		
O=C(O)CCCSCC(=O)Nc1ccccc1 [YU146590]	10.85	60.2	13.35	2.50		
COc1cc(C=O)ccc1OC(=O)c1ccncc1 [YU146698]	53.39	52.5	48.27	−5.12		
Fc1cccc(Cl)c1CNn1cnnc1S [YU146768]	49.49	34	48.97	−0.52		
C=CCn1c(-c2ccc([N+](=O)[O-])cc2)n[nH]c1=S [YU147005]	34.06	36.8	37.42	3.36		
S=C(Nc1ccc2c(c1)OCO2)Nn1cnnc1 [YU147019]	17.76	37.3	16.46	−1.29		
Cc1ccccc1C(=O)NCc1nnc(S)n1C [YU147024]	35.27	31.6	29.44	−5.84		
O=C(NC(=S)NCc1ccccc1)C1CCCC1 [YU147054]	24.52	33.9	22.98	−1.54		
N#CC(=Cc1ccncc1)c1nc2ccccc2s1 [YU147088]	45.66	39.8	46.00	0.34		
Cc1nnc(S)n1NCc1ccc2c(c1)OCO2 [YU147191]	43.11	31.5	45.05	1.94		
COCCCNCCOc1cc(C(C)C)ccc1C [YU147245]	12.07	30.9	13.31	1.25		
CCOc1cc(CN)cc(Cl)c1OCC.Cl [YU147266]	69.10	68.6	69.21	0.11		
CCSc1nnc(-c2cc(OC)cc(OC)c2)o1 [YU147278]	15.14	32.8	9.43	−5.71		
Cn1c(S)nnc1CSCc1ccc(F)cc1 [YU147498]	23.24	31.1	19.36	−3.87		
Cc1cc(OCc2nc3ccccc3s2)ccc1N [YU147615]	13.88	40.4	14.43	0.54		
CNCCCOc1ccc(OCc2ccccc2)cc1 [YU147640]		39.1			5.15	−2.82
C=CCn1c(Cc2nc3ccccc3[nH]2)n[nH]c1=S [YU147658]	28.18	32.8	27.63	−0.55		
COc1ccc2nc(NCc3ccncc3)sc2c1 [YU147704]	54.05	70.4	55.47	1.42		
Cc1nc(NC(=O)c2cc3ccccc3o2)sc1C [YU147750]		86.4			−2.53	−6.59
O=S(=O)(NN1CCOCC1)c1ccc(Cl)cc1 [YU148050]	17.03	36.1	20.47	3.44		
COC(=O)c1cccc(OCC(O)Cn2ccnc2)c1 (stereo not shown) [YU148087]	8.48	51.4	15.48	7.00		
O=C(NCCc1ccc(F)cc1)C(Cl)(Cl)Cl [YU148680]		63.9			−2.95	−10.90

Continued, values first:

Assay − Artifact Signal (percent) [1] [%]	inhibition at 20 µM [1] [%]	Assay Signal (percent) [1] [%]	Artifact Signal (percent) [2] [%]	Validation result of HTS active: effect of the compound in the JARID1B AlphaScreen demethylase assay [1]	Artifact signal: effect of the compound when it is incubated with bio-H3K4me2 peptide [2]	SMILES
35.74	30.4	38.72	2.98			C=CCn1c(-c2cccc(OC)c2OC)n[nH]c1=S [YU148159]
54.50	84.8	77.28	22.77			O=C(NNC(=S)NCC1CCCO1)c1ccccn1 (stereo not shown) [YU148374]
17.82	34.6	15.61	−2.20			COc1ccc(Cl)cc1NC(=S)Nn1cnnc1 [YU148611]
9.49	44.6	16.16	6.66			Cc1ccc(C(=O)Nc2nnc(-c3ccncc3)s2)o1 [YU148889]
12.28	37.9	15.58	3.30			S=C(Nc1cccc(Cl)c1Cl)Nn1cnnc1 [YU149002]
49.04	35.7	47.61	−1.43			C=CCn1c(S)nnc1CNC(=O)c1cccc(C)c1 [YU149014]
52.70	32	50.21	−2.49			Cn1cnnc1SCC(=O)c1ccc(C(C)(C)C)cc1 [YU149180]
	48.4			−2.24	−8.22	Cc1cccc(C(=O)NNC(=S)NC(=O)CC(C)C)c1 [YU149514]
11.45	34	13.59	2.14			COC(=O)NC1(C(F)(F)F)C(=O)NC(C)=C1C(=O)OC (stereo not shown) [YU149831]
	48.1			28.52	27.95	c1cc2c(cc1CNc1ccc(N3CCCC3)cc1)OCO2 [YU149834]
13.21	47.5	31.65	18.44			CCOc1cccc(CNc2ccc(N3CCCC3)cc2)c1 [YU149839]
	56.7			−6.24	−8.78	Cc1cc(C(=O)Nc2cccc(Cn3cccn3)c2)cs1 [YU149922]
	51.1			−12.32	−16.01	Cc1cccc(-n2c(=O)c(O)nc3cc([N+](=O)[O-])ccc32)c1 [YU149941]
8.46	84.7	6.61	−1.85			CC(=O)Nc1ccccc1NC(=O)c1ccc2c(c1)OCO2 [YU149951]
8.09	31.8	6.16	−1.93			CC(NC(=S)Nc1ccc2c(c1)OCO2)c1ccncc1 (stereo not shown) [YU150371]
	97.5			−3.10	−6.36	Cc1ccc(NC(=O)C2OCCc3ccccc32)cc1Cl (stereo not shown) [YU150403]
	34.3			4.56	0.80	CC1(C)C(=O)C2(CCCCC2)C(=O)OC1c1ccc(O)cc1 (stereo not shown) [YU150447]
	32.1			4.75	−2.52	O=c1c2c(-c3ccc(Cl)cc3)csc2nc2n1CCC2 [YU150472]
48.70	71.2	52.35	3.65			c1ccc(CCc2nn3c(-c4ccncc4)nnc3s2)cc1 [YU150981]
	37			2.93	−4.49	CCCc1ccc(OC(=O)c2cc3ccccc3oc2=O)cc1 [YU151027]
9.86	96.7	6.13	−3.73			CCOC(=O)C(CCOc1cccc(CC)c1)C(=O)OCC [YU151071]
8.40	59.7	6.20	−2.19			COc1ccc(C2CC(c3cccnc3)Nc3nnnn32)cc1 (stereo not shown) [YU151128]
